Assay results published in ChEMBL document CHEMBL4177590, “Design, synthesis and biological evaluation of WZ4002 analogues as EGFR inhibitors” (Bioorg Med Chem Lett, 2017).

Tests used:
NCI-H460 [1] = experiment: Potency index, ratio of gefitinib IC50 to compound IC50 for human NCI-H460 cells; assay type: functional
NCI-H460 [2] = experiment: Potency index, ratio of WZ4002 IC50 to compound IC50 for human NCI-H460 cells; assay type: functional

COc1cc(N2CCN(C)CC2)ccc1Nc1ncc(Cl)c(Oc2ccccc2NC(=O)COCc2ccccc2)n1
Ratio IC50 (NCI-H460 [1]): 6 - 10
Ratio IC50 (NCI-H460 [2]): 6 - 10

COc1cc(N2CCN(C)CC2)ccc1Nc1ncc(Cl)c(Oc2ccccc2NC(=O)CCOCc2ccccc2)n1
Ratio IC50 (NCI-H460 [1]): 6 - 10
Ratio IC50 (NCI-H460 [2]): 6 - 10

COc1cc(N2CCN(C)CC2)ccc1Nc1ncc(Cl)c(Oc2ccccc2NC(=O)CCO)n1
Ratio IC50 (NCI-H460 [1]): 6 - 10
Ratio IC50 (NCI-H460 [2]): 6 - 10

COc1cc(N2CCN(C)CC2)ccc1Nc1ncc(Cl)c(Oc2ccccc2NC(=O)CO)n1
Ratio IC50 (NCI-H460 [1]): 6 - 10
Ratio IC50 (NCI-H460 [2]): 6 - 10
